Measurements from patent publication US20230372289A1, “ANDROGRAPHOLIDE DERIVATIVE FOR USE IN THE TREATMENT OF INFLAMMATORY DISEASES ASSOCIATED WITH A CYTOKINE STORM” (CONSEJO SUPERIOR DE INVESTIGACIONES CIENTÍFICAS (CSIC), priority 2020, published 2023).
≈ marks a conversion by molar mass, not a printed value. Entries after “also recorded” stand apart in the source; their conditions may differ.

Columns and labels:
[1] = system: cells involved in the inflammatory response; test: Cellular inflammatory response in transgenic larvae (LYZ:Red) after SVCV infection, treatment by microinjection; assay type: in vivo, Danio rerio; conditions: microinjection 2 nl concomitant with SVCV, 2 hpi, vs control groups
Experimental: (§1) Anti-inflammatory activity studies of the compounds were carried out in wild type fish, determining the expression levels of the pro-inflammatory cytokines IL-1β and IL-6. Transgenic larvae with labeled fluorescent neutrophils (Tg(Mpx:GFP)i114) or fluorescent myeloid cells (Tg(LYZ:Red)) were also used to assess how different treatments affect the inflammatory response of these cells. The inflammatory stimulus used was both the virus itself, which causes activation of the inflammasome and death of macrophages by pyroptosis (Varela et al. J. Virol. 2016, 88, 12026), as well as an acute stimulus of inflammation generated by a wound in the tail. The migration of fluorescent leukocytes from these transgenic lines was studied by means of microscopy and image analysis.
In a first assay, the cellular response to inflammation was quantified in transgenic Danio rerio larvae (LYZ:Red) after an infection with SVCV treated or untreated (control) with the AG1 compounds (28 μM), AG3 (10 μM), AG4 (10 μM), AG5 (10μM) and EAp (10 μg/ml). The treatments were carried out by microinjection (2 nl in the duct of Cuvier) of the drugs in fish 3 days post-fertilization (5-10 fish/well), concomitantly administering the virus and the different compounds. […] At 2 h post-injection (2 hpi), the number of cells involved in the inflammatory response was determined.

New Zealand rabbits [2] = test: Single intravenous dose toxicity (phase I, OECD 425); assay type: in vivo; conditions: AG-5 in PBS (3 mg/ml)
Experimental: (§2) As part of the preclinical evaluation of toxicity, the purpose of this study was to define the MRD of AG-5, formulated as a solution in PBS (3 mg/ml), in a non-rodent mammalian species, that is, rabbit, under GLP and to provide data of toxicological interest.
(§3) To this end, a two-phase study was designed: i) in phase I, the product was administered intravenously in a single dose and following OECD guidelines 425, to a total of 4 New Zealand rabbits (2 males and 2 females) of about 2.5 kg and 12-13 weeks old, and the maximum tolerated dose (MTD) range was provisionally determined; ii) in phase II, the animals (a total of 4 New Zealand rabbits of about 2.5 kg and 12-13 weeks old) were given a daily intravenous administration for 7 days and the MRD that will serve as a reference (highest dose to be used) was confirmed.
(§4) The initial dose to be used in phase I was selected based on the data obtained by the laboratory after the administration of AG-5 in rats at a repeated dose of up to 30 mg/kg, for 7 days. In this study, the dose of 30 mg/kg was established as the MRD to be used in subsequent general toxicity studies. […] The dose to be tested in phase II was determined based on the results obtained in phase I, selecting a dose from the dose interval lower than that at which serious toxic effects would have been observed, with a maximum of 15 mg/kg/day as MFD, in application of the ICH M3(R2) guideline. The study considered the complete assessment of the symptoms, that is, intensity, time of onset and reversibility, the study of analytical (hematological and biochemical) parameters and the determination of the weight of toxicity target organs, to be fundamental.

Wistar rats [3] = test: Repeated dose toxicity, daily intravenous administration for 7 days (phase II); assay type: in vivo; conditions: AG-5 in PBS (3 mg/ml)
Experimental: (§5) As part of the preclinical toxicity evaluation, the purpose of this study was to define the maximum repeated dose (MRD) of AG-5, formulated as a solution in PBS (3 mg/ml), in a mammalian rodent species under good laboratory practice (GLP) and to provide data of toxicological interest. To this end, a two-phase study was designed: i) in phase I, the product was administered intravenously in a single dose and following OECD guidelines 425 (OECD Guidelines for the testing of chemicals. Guidelines 425: Acute oral toxicity: up and down procedure. Adopted 3 Oct. 2008), to a total of 12 8-week old female Wistar rats by means of a dose escalation process (incremental factor 3.2), the maximum tolerated dose (MTD) was provisionally determined; ii) in phase II, the animals (a total of 8-week old Wistar rats, 15 males and 15 females) were given a daily intravenous administration for 7 days and the MRD was confirmed.
The initial dose to be used in phase I was selected from the sequence of doses included in OECD guidelines 425, that is, 5.5, 17.5 and 30 mg/kg of body weight. […]

IL-6 = IL-6 gene expression by qPCR in wild type larvae infected with SVCV, bath treatment; assay type: in vivo, Danio rerio; conditions: 10 μM bath for 24 h, then SVCV injection, qPCR at 24 h, vs untreated control groups
Experimental: as §1
In a third and final assay, the gene expression of proinflammatory cytokines was determined in Danio rerio (wild type) larvae treated with the AG1 (5 μM), AG3 (5 μM), AG4 (10 μM), AG5 (10 μM) compounds and EAp (10 μg/ml), and subsequently infected with SVCV. The treatments were carried out in a bath for 24 h on fish 1 day post-fertilization (10 fish/well). The experiment was carried out in quadruplicate (n=4). On the second day post-fertilization each fish was injected (2 nl in the duct of Cuvier) 5×10^4 TCID50/mL of SVCV. At 24 h, the expression of IL-6 was determined by qPCR.

Wistar rats [4] = test: Single intravenous dose toxicity (phase I, OECD 425); assay type: in vivo; conditions: AG-5 in PBS (3 mg/ml)
Experimental: as §5
The initial dose to be used in phase I was selected from the sequence of doses included in OECD guidelines 425, that is, 5.5, 17.5 and 30 mg/kg of body weight. The doses to be tested in phase II were determined based on the results obtained in phase I, selecting 3 doses from the dose interval lower than that in which serious toxic effects would have been observed, that is, 15, 20 and 30 mg/kg/day, with 30 mg/kg being the maximum feasible dose (MFD), in application of the ICH M3(R2) guideline (ICH Harmonized Tripartite Guideline. Non-Clinical Safety Studies for the Conduct of Human Clinical Trials and Marketing Authorization for Pharmaceuticals M3 (R2). Current Step 5 version dated 11 Jun. 2009). The study considered the complete assessment of the symptoms, that is, intensity, time of onset and reversibility, the study of analytical (hematological and biochemical) parameters and the determination of the weight of toxicity target organs, to be fundamental.

New Zealand rabbits [5] = test: Repeated dose toxicity, daily intravenous administration for 7 days (phase II); assay type: in vivo; conditions: AG-5 in PBS (3 mg/ml), intravenous daily for 7 days
Experimental: as §2, §3, §4

[6] = system: Salmonella typhimurium strains TA98, TA100, TA102, TA1535 and TA1537; test: Ames test; assay type: cell-based
Experimental: The aim of the study was to characterize the possible genotoxic effect of the assay product AG-5 by means of the Ames test (Ames et al. Proc. Nat. Acad. Sci. USA 1973, 70, 783). To that end, it was determined in a study carried out under GLP whether AG-5 has the ability to produce gene mutations, either by substitution or by mismatch, in Salmonella typhimurium bacteria histidine (His-) auxotrophs.
The study was carried out with strains TA98, TA100, TA102, TA1535 and TA1537 in the presence and in the absence of metabolic activation (S9 mixture). The doses recommended by the OECD guidelines were tested: 100 mg/ml, that is, equivalent to 5000 μg/plate, and […] other lower concentrations (33.3; 11.1; 3.7 and 1.2 mg/ml). […] The results were negative in the 5 bacterial strains (TA98, TA100, TA102, TA1535 and TA1537) both in the presence and in the absence of metabolic activation.

[7] = Solubility of the product in PBS; assay type: physicochemical; conditions: aqueous buffer
[8] = system: migration of neutrophils to the wound; test: Acute inflammatory response produced by a tail wound, neutrophil migration in Tg(Mpx:GFP)i114 larvae, bath treatment; assay type: in vivo, Danio rerio; conditions: 10 μM by bath, tail cut after 24 hours, neutrophils counted 24 hours after the wound
Experimental: as §1
In a second assay, the effect of the different compounds on an acute inflammatory response produced by a wound was analyzed. To that end, transgenic fish with fluorescent neutrophils (Tg(Mpx:GFP)i114) were used and their migration to the affected area was analyzed. The AG1 (5 μM), AG3 (5 μM), AG4 (10 μM), AG5 (10 μM) compounds and EAp (10 μg/ml) were administered by bath and after 24 hours the wound was made by cutting the end area of the tail. After 24 hours, neutrophils that migrated to the area of the wound were counted. […] FIG. 3.

For C=C1CCC2C(C)(CO)C(O)CCC2(C)C1CC=C1C(=O)OCC1O (stereo not shown) [AG1, 3-[2-[-decahydro-6-hydroxy-5-(hydroxy-methyl)-5,8a-dimethyl-2-methylene-1-naphthalenyl]ethylidene]dihydro-4-hydroxy-2(3H)-furanone, reference compound], the “cellular inflammatory response induced by the viral infection (number of cells involved in the inflammatory response)” value ([1]; 28 μM) was “significantly reduce”.

With C=C1CC[C@@H]2[C@](C)(CO)[C@H](O)CC[C@@]2(C)[C@@H]1C[C@H](C1=CCOC1=O)S(=O)(=O)O [AG5, 14-deoxy-12(R)-sulfo-andrographolide] the “LD50 estimated in rabbits” value (New Zealand rabbits [2]; intravenous single dose) was “greater than 15 mg/kg of body weight”, the “MTD level in rabbits in a single dose” value (New Zealand rabbits [2]; intravenous single dose) was 15 mg/kg of body weight and the lethality (New Zealand rabbits [2]; intravenous single dose 15 mg/kg, New Zealand rabbits) was “did not produce lethality in any animal”. The “associated signs of toxicity” value (New Zealand rabbits [2]; intravenous single dose 15 mg/kg, rabbits) was “No associated signs of toxicity were observed”, the “MRD (maximum repeated dose)” value (Wistar rats [3]; intravenous daily for 7 days) was 30 mg/kg and the “changes in analytical parameters, macroscopic alterations in abdominal and thoracic organs, absolute or relative weight of the organs” value (Wistar rats [3]; intravenous daily for 7 days, 15, 20 and 30 mg/kg) was “No toxicologically relevant changes”. The “IL-6 production (gene expression) in infection by SVCV” value (IL-6) was “significantly reduce”, the “LD50 estimated in rats” value (Wistar rats [4]) was “greater than 30 mg/kg of body weight” and the “MTD level in rats in a single dose” value (Wistar rats [4]) was 30 mg/kg of body weight. For the same molecule, the “signs of toxicity related to the administration” value (Wistar rats [4]; all doses tested in phase I) was “nor did it produce signs of toxicity”, the “cellular inflammatory response induced by the viral infection (number of cells involved in the inflammatory response)” value ([1]; 10 μM) was “significantly reduce” and the “changes in analytical parameters, macroscopic alterations in abdominal and thoracic organs, absolute or relative weight of the organs” value (New Zealand rabbits [5]; 15 mg/kg, rabbit study) was “No toxicologically relevant changes”. For the same molecule, the “mortality or alterations in the general symptoms” value (New Zealand rabbits [5]; 15 mg/kg, rabbit study) was “did not produce mortality or alterations in the general symptoms”, the “MRD (maximum repeated dose)” value (New Zealand rabbits [5]; rabbits) was 15 mg/kg and the “precipitation of the product or toxicity (preliminary dose test)” value ([6]; 100 mg/ml (5000 μg/plate) and lower concentrations (33.3; 11.1; 3.7 and 1.2 mg/ml)) was “No precipitation of the product or toxicity was observed”. The “mutagenicity test (gene mutations)” value ([6]; 5 strains, in the presence and in the absence of metabolic activation (S9 mixture), up to 5000 μg/plate) was “negative; also recorded: did not induce gene mutations”, the solubility [7] was 3000 µg/mL (≈ 7.24 mM) and the “inflammatory response generated by the migration of neutrophils to the wound” value [8] was “significantly decreased”.
